18 molecules from PubChem BioAssay (NCI) can be followed below.

Test in all cases: inhibition of tumour cell growth, NCI panel, 48 h
Assay [1] has as its system ACHN renal.
Assay [2] relates to DMS 114 small cell lung.
For assay [3], the system named is DMS 273 small cell lung.
Assay [4] concerns LXFL 529 NSCLC.
The test system of assay [5] is M19-MEL melanoma.
For assay [6], the system named is NCI-H460 lung.
The subject of assay [7] is SF-539 CNS.
Assay [8] relates to SW-620 colon.
The subject of assay [9] is UACC-257 melanoma.
Assay [10] has as its system SNB-78 CNS.
The test system of assay [11] is MDA-MB-435.

Where “and” joins values, the source holds several entries; their conditions need not be identical. Equal entries are not always repeated.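 Five compound concentrations were applied to cells in 96-well plates for 48 hours; endpoints were derived by simple linear interpolation of the resulting dose-response curve. The concentration for 50% growth inhibition is given as GI50. TGI: concentration producing complete growth inhibition.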

Turning to `CC(C)c1cccc(C(C)C)c1NC(=O)C(=O)Cc1nc2ccc([N+](=O)[O-])cc2[nH]c1=O`, the TGI in assay [1], in assay [2], in assay [3], in assay [4], in assay [5] and in assay [6] was greater than 100 µM in each case. For the same molecule, the TGI in [7], in assay [8] and in [9] was greater than 100 µM each time.

On to `CC(=O)Nc1[nH]n(C)c(=O)c1-c1nnc(C)s1`, for which the TGI in assay [1], in assay [2], in assay [3], in assay [4], in assay [6] and in assay [7] was greater than 100 µM each time. The TGI in assay [10], in assay [8] and in assay [9] was greater than 100 µM each time.

On to `COc1cc2c(c(OC)c1OC)-c1ccc(SC)c(=O)cc1[C@@H](NCc1ccc(F)cc1)CC2`, for which the TGI is 75 µM and 49.2 µM in assay [1]; 10.1 µM and 18.2 µM in assay [4]; 75 µM and 13.3 µM in assay [5]; 65.6 µM and > 100 µM in assay [10]; 18.8 µM and > 100 µM in assay [8]; 44.1 µM and 55.7 µM in assay [9].

For `CCOC1=C2N=C(C(CC)c3ccccc3F)N=C2C(=O)c2ccccc21` (stereo unspecified), the TGI in assay [1], in assay [2], in assay [3], in [4], in assay [5] and in [6] was greater than 100 µM throughout. Besides, the TGI in [7], in assay [8] and in assay [9] was greater than 100 µM each time.

As to `O=Cc1c[nH]c2c(=O)[nH]cnc12`, the TGI in assay [1], in assay [2], in assay [4], in assay [5], in [10] and in assay [8] was greater than 100 µM throughout. In assay [9], this molecule showed a TGI greater than 100 µM.

For the molecule `COCC(C)(C)N=CN1Cc2cc3ccccc3nc2C1`, the TGI in assay [1], in assay [2], in [5], in assay [6], in assay [7] and in assay [8] was greater than 100 µM each time. The molecule further registered a TGI in assay [9] greater than 100 µM.

For `Cc1c(C)c2c(c(N)c1C#N)C(=O)N(O)C2=O`, the TGI in [1], in assay [11], in assay [6], in assay [7], in assay [8] and in [9] was greater than 100 µM each time.

Take `CCOC(=O)C(NC(=O)OCc1ccccc1)C(=O)O` (stereo unspecified): the TGI in assay [1], in [11], in assay [6], in [7], in assay [8] and in assay [9] was greater than 100 µM in each case.

For the molecule `CC1(C)C2CCC3CC(CCC#N)CCC3C21C#N` (stereo unspecified), the TGI in assay [1], in assay [11], in assay [6], in assay [7], in assay [8] and in assay [9] was greater than 100 µM each time.

Take `CS(=O)(=O)N1CC(CCl)c2ccc(NO)cc21` (stereo unspecified): the TGI in assay [1] was 21 µM; in assay [11] it was 35.4 µM; in assay [6], 34.4 µM; in [7], 26.1 µM; in assay [8] it was greater than 50.4 µM; in assay [9] it was 40.6 µM.

With `O=C1CN(c2ccccc2)Cc2nc(Cl)ccc2N1`, the TGI in assay [1], in assay [11], in assay [6], in assay [7], in [8] and in assay [9] was greater than 100 µM throughout.

For the molecule `CN(C)CCNc1ccc2ncn3c4ccccc4c(=O)c1c23`, the TGI in assay [1] is 10.5 µM; in assay [2] it was 13.7 µM; in assay [4], 19.2 µM; in [5], 12.6 µM; in assay [6], 6.86 µM; in assay [7], 16.9 µM. Besides, the TGI in [10] was determined as 19.8 µM; in assay [8], 12.9 µM; in [9], 11.5 µM.

Consider `CCCCOCCOCCOC1=CC(=O)c2c(O)ccc(O)c2C1=O`, for which the TGI in [1] is 3.2 µM; in assay [11] it was 0.356 µM; in assay [6] it was 3.69 µM; in [7], 3.46 µM; in [8] it was 3.06 µM; in [9] it was 2.97 µM.

As for `COc1ccccc1/C=C(/C)[N+](=O)[O-]`, the TGI in assay [1] is 4.68 µM and 5.46 µM; in assay [11] it was 9.18 µM and 3.64 µM; in [7], 6.6 µM and 3.71 µM; in assay [8], 43.1 µM; in [9], 3.4 µM and 3.53 µM. Further, in assay [6], the GI50 is 4.07 µM and 1.94 µM.

Turning to `CC(C)/C=C1\CCC(CN(C)C)C1=O` (stereo unspecified), the TGI came out at 12.5 µM in [1]; 10.3 µM in assay [2]; 2.85 µM in assay [4]; 33.7 µM in assay [5]; 3.01 µM in assay [11]; 40.1 µM in assay [6]. In addition, the TGI turned out to be 19.8 µM in assay [7], 23.8 µM in assay [10], 1.55 µM in [8] and 10.8 µM in assay [9].

As for `C#CC[C@@H]1C(=O)N(Cc2ccc(OC)cc2)[C@@H](C(C)C)C(=O)N1Cc1ccc(OC)cc1`, the TGI in [1], in [11], in [6], in [7], in assay [8] and in assay [9] was greater than 100 µM in each case.

For the molecule `Cc1ccc(S(=O)c2cccs2)cc1` (stereo unspecified), the TGI in assay [1], in assay [11], in assay [6], in assay [7], in assay [8] and in assay [9] was greater than 100 µM each time.

As to `COc1nc(N=P(c2ccccc2)(c2ccccc2)c2ccccc2)cc(=O)n1C`, the TGI in [1], in assay [11], in assay [6], in [7], in assay [8] and in assay [9] was greater than 100 µM in each case.
